Here are results for 13 compounds from the SangsterLogP compilation.

In general, logP refers to a log measure of how a compound divides between an organic and an aqueous phase. The low end stands for lower lipophilicity, the high end for higher lipophilicity.

Compound `O=C(O)C=CC=Cc1ccccc1` registered a logP of 3.15.

`CCN(CC)CCOC(=O)/C=C/c1ccccc1` displayed a logP of 3.61. The compound `CCOC(=O)/C=C/c1ccc(O)c(O)c1` came in with a logP of 2.56. `CCN(CC)CCOC(=O)C=Cc1ccc(OC)c(OC)c1` yielded a logP of 2.88. The figure for `O=C(O)/C=C/c1ccc(O)cc1` is 1.79; for `CCN(CC)CCOC(=O)/C=C/c1ccc(F)cc1` it is 3.52; for `COc1ccc(/C=C/C(=O)O)cc1` it is 2.68. For the compound `COc1ccc(C=CC(=O)O)cc1OC`, the log partition coefficient (logP) was determined as 2.34.

Consider `COc1cc(C=CC(=O)O)ccc1O`, for which the logP is 1.87. `COC(=O)/C=C/c1ccc(O)c(O)c1` yielded a logP of 2.22. The compound `CCN(CC)CCOC(=O)/C=C/c1cc(OC)c(OC)c(OC)c1` came in with a logP of 2.84. With `O=C(O)/C=C/c1ccc2c(c1)OCO2` the figure was 2.59. Take `O=C(C=Cc1ccccc1)OCC=Cc1ccccc1`: the logP turned out to be 4.45.
